The results in this text go back to the supplement of paper PMC11208160.
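Further: IS621 bridge recombinase in Escherichia coli cells against a fixed T5 target plasmid.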

The nature of this data set: recombinant UMI read abundance after kanamycin selection (control-corrected) (log10(CPM+1)); higher = more efficient recombination; extreme values may be limits of the assay; sequences stand for … in AGTGCAGAGAAAATCGGCCAGTTTTCTCTGCCTGCAGTCCGCATGCCGTGGGACCCCTTGGGTTCTAACCTGTTGCCTAGATTTATGCAGCGGACTGCCTTTCTCCCAAAGTGATAAACCGG…AGGTTGGTTTCACT; site = the 11-nt donor. A digest of the protocol:
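Two replicates each of selected and unselected plating were used in this pooled Escherichia coli screen of donor and donor-binding-loop pairs for the IS621 bridge recombinase. Selection was with IPTG (0.07 mM) and kanamycin. Counts of recombinant UMIs, amplified across the donor–target junction, were converted to CPM, averaged, scaled by control-derived factors and reported as log10(CPM+1).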
For the sequence “GCGTCAACATGGACCGGTTTTCCCGGTAATCCGTATTTGGT (site GCGTCAACTAC)”, the “recombinant UMI read abundance (log10)” value is 0.129.
In the case of “GCGTTAGCATGGACCGGTTTTCCCGGTAATCCGTATTTGTG (site ACGTTAGCTCA)” it was 0.84; in that of “GCGTTAGCATGGACCGGTTTTCCCGGTAATCCGTATTTGTG (site CCGTTAGCTCA)”, 0.885; in that of “GCGTTAGCATGGACCGGTTTTCCCGGTAATCCGTATTTGTG (site GCGTTAGCTCA)”, 1.75.
In the case of “GCGTTAGCATGGACCGGTTTTCCCGGTAATCCGTATTTGTG (site TCGTTAGCTCA)” it was 0.669; in that of “GCGTTTCCATGGACCGGTTTTCCCGGTAATCCGTATTTGCT (site GCGTTTCCTAG)”, 1.81.
In the case of “GCTAAAGCATGGACCGGTTTTCCCGGTAATCCGTATTTGAT (site ACTAAAGCTAT)” it was 0.901; in that of “GCTAAAGCATGGACCGGTTTTCCCGGTAATCCGTATTTGAT (site CCTAAAGCTAT)”, 1.04; in that of “GCTAAAGCATGGACCGGTTTTCCCGGTAATCCGTATTTGAT (site GCTAAAGCTAT)”, 1.92.
In the case of “GCTAAAGCATGGACCGGTTTTCCCGGTAATCCGTATTTGAT (site TCTAAAGCTAT)”, the “recombinant UMI read abundance (log10)” value amounted to 0.378.
Consider “GCTAATACATGGACCGGTTTTCCCGGTAATCCGTATTTGGC (site ACTAATACTGC)”, for which the “recombinant UMI read abundance (log10)” value was determined as 0.
In the case of “GCTAATACATGGACCGGTTTTCCCGGTAATCCGTATTTGGC (site CCTAATACTGC)” it was 0.772; in that of “GCTAATACATGGACCGGTTTTCCCGGTAATCCGTATTTGGC (site GCTAATACTGC)”, 0.0276; in that of “GCTAATACATGGACCGGTTTTCCCGGTAATCCGTATTTGGC (site TCTAATACTGC)”, 0.548.
In the case of “GCTACAACATGGACCGGTTTTCCCGGTAATCCGTATTTGAG (site GCTACAACTCT)” it was 0.921; in that of “GCTACGCCATGGACCGGTTTTCCCGGTAATCCGTATTTGCG (site GCTACGCCTCG)”, 0.00779; in that of “GCTACTGCATGGACCGGTTTTCCCGGTAATCCGTATTTGAG (site GCTACTGCTCT)”, 1.49.
As to “GCTACTGCATGGACCGGTTTTCCCGGTAATCCGTATTTGCC (site ACTACTGCTGG)”, the “recombinant UMI read abundance (log10)” value was 1.44.
In the case of “GCTACTGCATGGACCGGTTTTCCCGGTAATCCGTATTTGCC (site CCTACTGCTGG)” it was 0.983.
In the case of “GCTACTGCATGGACCGGTTTTCCCGGTAATCCGTATTTGCC (site GATACTGCTGG)” it was 0; in that of “GCTACTGCATGGACCGGTTTTCCCGGTAATCCGTATTTGCC (site GCAACTGCTGG)”, 0; in that of “GCTACTGCATGGACCGGTTTTCCCGGTAATCCGTATTTGCC (site GCCACTGCTGG)”, 0.445.
In the case of “GCTACTGCATGGACCGGTTTTCCCGGTAATCCGTATTTGCC (site GCGACTGCTGG)” it was 0; in that of “GCTACTGCATGGACCGGTTTTCCCGGTAATCCGTATTTGCC (site GCTAATGCTGG)”, 0.
Take “GCTACTGCATGGACCGGTTTTCCCGGTAATCCGTATTTGCC (site GCTACAGCTGG)”: the “recombinant UMI read abundance (log10)” value is 0.
In the case of “GCTACTGCATGGACCGGTTTTCCCGGTAATCCGTATTTGCC (site GCTACCGCTGG)” it was 0; in that of “GCTACTGCATGGACCGGTTTTCCCGGTAATCCGTATTTGCC (site GCTACGGCTGG)”, 0; in that of “GCTACTGCATGGACCGGTTTTCCCGGTAATCCGTATTTGCC (site GCTACTACTGG)”, 1.21.
In the case of “GCTACTGCATGGACCGGTTTTCCCGGTAATCCGTATTTGCC (site GCTACTCCTGG)” it was 0.
